One assay concerns IL-12p40-eYFP^+ cells. Briefly: Intravital imaging of MC38 tumors in IL-12p40-eYFP reporter mice. It is filed as in vivo. The conditions noted are these: after 48 hours compared to baseline. As for the experimental part: (§1) Tumor bearing mice, with a tumor size of approximately 75 mm^3, were treated with 200 μg of aPD-1 and/or 100 μg of aCD40 intraperitoneally for immunotherapy studies. For combination treatment studies, both aPD-1 and aCD40 were administered at the same time. For IL-12 neutralization studies, mice were dosed with 500 μg of anti-IL-12p40 Clone 17.8 daily for 5-7 days following aPD-1 therapy. Neutralization of IFN-γ in vivo was performed by administering 1 mg of anti-IFN-γ Clone XMG1.2 initially with 500 μg of anti-IFN-γ dosed daily intraperitoneally for days 1-3. The cIAP1/2 inhibitor AZD5582 (Hennessy et al., 2013) was purchased from Selleck Chem and was resuspended in sterile saline. […]
Interferon gamma reporter (IFN-γ-eYFP) or IL-12p40 reporter (IL12p40-eYFP) mice were anesthetized and dorsal skin-fold window chambers were installed as previously described (Thurber et al., 2013) and mice were treated with analgesic (Buprenorphine 0.1 mg/kg/day) for 3 days following chamber implantation. […] Anesthetized mice were kept on a heating pad kept at 37° C., vital signs monitored and mice were imaged using an Olympus FluoView FV1000MPE confocal imaging system (Olympus America). […] Sequential scanning (5 μm slices) with 405, 473, 559, and 635 nm lasers was performed using voltage and power settings that were optimized using fluorescence minus-one control mice prior to time lapse acquisition. […]

The next assay concerns MC38 tumors. Put plainly: MC38 tumor model: tumor growth, survival, re-challenge. It is filed as in vivo, mice. On the procedure: MC38 tumor cell lines were obtained from Dr. Mark Smyth (QIMR Berghofer). MC38 cells were implanted at 2×10^6 cells in the flank. B16F10 cell lines were obtained from ATCC. B16F10 cells were implanted intradermally at 0.5×10^6 cells in the flank. All tumor models were allowed to grow for one week prior to therapy. Tumor sizes were approximately 75 mm^3 before treatment initiation, and starting tumor volumes were normalized between treatment groups. Percent tumor changes were calculated as percent difference of mouse tumor volume from pre-treatment baseline, measured using digital caliper. Lung seeding B16F10 models received 0.5×10^6 cells intravenously and were allowed to grow for 10 days from the point of implantation. Mouse tumors were allowed to grow to a maximum of 2 cm in diameter, or until tumor ulceration occurred. These were considered as endpoints for survival experiments in accordance with MGH IACUC regulations.
as §1, with “saline. Mice received a single dose of AZD5582 at 10 mg/kg, intraperitoneally.” for “saline.”
Long-term surviving mice from aPD-1 and aCD40 combination therapy were re-challenged with either MC38 or B16F10 tumors at 50 days following primary tumor rejection. […] Naive C57BL/6J mice were implanted alongside re-challenge mice, and these mice were monitored for tumor growth for 2 weeks following implantation. […]

Assay [1] concerns Flt3L-derived bone marrow DCs. Briefly: Flt3L-derived bone marrow DCs cultured in vitro with AZD5582, IL-12p40 transcripts. It is filed as cell-based. The conditions noted are these: 24 hours, various concentrations of AZD5582. As for the experimental part: FIGS. 13A-C. IL-12 Expressing Cells Express More CD40 and […] can Induce IL-12 Production In vitro. (A) Flow cytometry of MC38 tumors from IL-12p40-eYFP reporter mice, stained for CD40 expression; n=7 per group. (B) Flow cytometry of CD40 expression from the following tumor immune cell populations: Non-Antigen Presenting Cells (non-APCs, defined as F4/80−CD11c−MHCII−), macrophages (F4/80+) and IL-12+ DCs (CD11chi MHCIIhi IL-12+); n=4 per group. (C) Flt3L-derived bone marrow DCs were cultured in vitro with various concentrations of AZD5582 for 24 hours, and were harvested for RNA. Shown is fold change expression of IL-12p40 transcripts compared to untreated conditions (n=3 per condition). Results are representative of at least 2 independent experiments. ****p<0.0001; Student's two tailed t-test.

Regarding `CN[C@@H](C)C(=O)N[C@H](C(=O)N1CCC[C@H]1C(=O)N[C@H]1c2ccccc2C[C@H]1OCC#CC#CCO[C@@H]1Cc2ccccc2[C@@H]1NC(=O)[C@@H]1CCCN1C(=O)[C@@H](NC(=O)[C@H](C)NC)C1CCCCC1)C1CCCCC1` [AZD5582], the “fold increase of tumor-infiltrating IL-12^+ cells” value in the assay on IL-12p40-eYFP^+ cells stood at 4.0±1.3 fold. In the assay on MC38 tumors (MC38 tumor-bearing mice, treatment as labelled), the “antitumor response, MC38 tumors” value is “provided antitumor effects in vivo”. Moreover, the “IL-12 production in vitro” value in assay [1] was “potently enhanced IL-12 production in vitro”.
Regarding `CCCCCCCCc1ccc(CCC(N)(CO)CO)cc1` [FTY720], in the assay on MC38 tumors (MC38, FTY720 1.25 mg/kg i.p. daily with aPD-1), the “effect of FTY720 on the antitumor response to aPD-1” value is recorded as “did not affect the antitumor response to aPD-1 treatment”.

The values above are taken from patent publication US20210355221A1, “Targeting the Non-Canonical NFkB Pathway in Cancer Immunotherapy” (The General Hospital Corporation, priority 2018, published 2021).
